Assay results: patent US5731334A, “Method for treating cancer using taxoid onium salt prodrugs” (priority 1995, dated 1998)

Columns and labels:
[1] = test system: tubulin; test: Tubulin polymerization-depolymerization (microtubule assembly-disassembly) assay; format: biochemical, calf; settings: CaCl2, 10^-6 M drug, 37° C., in words
[2] = test system: HL-60 promyelocytic leukemia cells; test: XTT dye binding cytotoxicity assay, HL-60; format: cell-based; settings: Homo sapiens; HL-60, promyelocytic leukemia; 72 h; read-out: IC50
Procedure: (§1) All cell lines described herein were obtained from the ATCC and maintained in media formulations as recommended by the supplier. The cell lines were tested for mycoplasma contamination prior to incubation at 37° C. in 5% carbon dioxide. Normal human dermal fibroblasts, peripheral blood lymphoblasts and mammary epithelial cells were obtained from Clonogenic Cor., San Diego, Calif. and were maintained under the above incubation conditions in special media provided by the supplier.
(§2) Antiproliferative activities of the onium salts were determined using the XTT dye binding assay. Cells were harvested with trypsin/EDTA (Irvine Scientific), washed, resuspended in the appropriate medium, and counted in a hemocytometer using Trypan Blue to determine viability. Then 10^4 cells/well were added to 96 well microtiter plates and incubated for 24 hours before addition of drug at concentrations in the range of 10^-4 to 10^-13 molar by direct addition from DMSO solutions. After 72 hours, XTT binding dye was added and incubation was continued for 4 hours. The inhibition of cell proliferation was quantified using a Molecular Devices Microplate Reader. The absorbance of XTT was measured at […]. The concentration of drug which inhibited growth of cells by 50% was calculated from duplicated determinations.

[3] = test system: CHO Chinese hamster ovary cells; test: XTT dye binding cytotoxicity assay, CHO; format: cell-based; settings: Cricetulus griseus; CHO, Chinese hamster ovary (untransformed); 72 h; read-out: IC50
Procedure: as §1, §2

[4] = in vitro; settings: human, plasma
[5] = test system: HT-29 colon carcinoma cells; test: XTT dye binding cytotoxicity assay, HT-29; format: cell-based; settings: Homo sapiens; HT-29, colon carcinoma; 72 h; read-out: IC50
Procedure: as §1, §2

[6] = Toxicity and survival in vivo (tumor bearing nude mice); settings: for Toxicity: Table II, in vivo; for % survival: at end of experiments
[7] = test system: Capan 1 pancreas cancer cells; test: XTT dye binding cytotoxicity assay, Capan 1; format: cell-based; settings: Homo sapiens; Capan 1, pancreas cancer; 72 h; read-out: IC50
Procedure: as §1, §2

[8] = test system: BT-549 breast carcinoma cells; test: XTT dye binding cytotoxicity assay, BT-549; format: cell-based; settings: Homo sapiens; BT-549, breast carcinoma; 72 h; read-out: IC50
Procedure: as §1, §2

[9] = test system: RPMI-7666 blood lymphoblasts; test: XTT dye binding cytotoxicity assay, RPMI-7666; format: cell-based; settings: Homo sapiens; RPMI-7666, blood lymphoblasts (untransformed); 72 h; read-out: IC50
Procedure: as §1, §2

[10] = test system: HMEC mammary epithelial cells; test: XTT dye binding cytotoxicity assay, HMEC; format: cell-based; settings: Homo sapiens, mammary epithelial cells (untransformed), 72 h, read-out: IC50
Procedure: as §1, §2

[11] = test system: PC-3 prostate carcinoma cells; test: XTT dye binding cytotoxicity assay, PC-3; format: cell-based; settings: Homo sapiens, 72 h
Procedure: as §1, §2

[12] = test system: 786-0 renal cell carcinoma cells; test: XTT dye binding cytotoxicity assay, 786-0; format: cell-based; settings: Homo sapiens; 786-0, renal cell carcinoma; 72 h; read-out: IC50
Procedure: as §1, §2

[13] = test system: A-549 lung carcinoma cells; test: XTT dye binding cytotoxicity assay, A-549; format: cell-based; settings: Homo sapiens, A549; A-549, lung carcinoma; 72 h; read-out: IC50
Procedure: as §1, §2

[14] = test system: Molt-4 T-cell leukemia cells; test: XTT dye binding cytotoxicity assay, Molt-4; format: cell-based; settings: Homo sapiens; Molt-4, T-cell leukemia; 72 h; read-out: IC50
Procedure: as §1, §2

[15] = test system: SIHA squamous carcinoma cells; test: XTT dye binding cytotoxicity assay, SIHA; format: cell-based; settings: Homo sapiens; SIHA, squamous carcinoma; 72 h; read-out: IC50
Procedure: as §1, §2

[16] = test system: U-2511 CNS cancer cells; test: XTT dye binding cytotoxicity assay, U-2511; format: cell-based; settings: Homo sapiens; U-2511, CNS cancer; 72 h; read-out: IC50
Procedure: as §1, §2

[17] = test system: UCLA-P3 lung carcinoma cells; test: XTT dye binding cytotoxicity assay, UCLA-P3; format: cell-based; settings: Homo sapiens, UCLA P-3; UCLA-P3, lung carcinoma; 72 h; read-out: IC50
Procedure: as §1, §2

[18] = test system: SK-N-SH neuroblastoma cells; test: XTT dye binding cytotoxicity assay, SK-N-SH; format: cell-based; settings: Homo sapiens, neuroblastoma, 72 h, read-out: IC50
Procedure: as §1, §2

[19] = test system: OVCAR-3 ovarian carcinoma cells; test: XTT dye binding cytotoxicity assay, OVCAR-3; format: cell-based; settings: Homo sapiens; OVCAR-3, ovarian carcinoma; 72 h; read-out: IC50
Procedure: as §1, §2

[20] = test system: NHDF dermal fibroblast; test: XTT dye binding cytotoxicity assay, NHDF; format: cell-based; settings: Homo sapiens, dermal fibroblast (untransformed), 72 h, read-out: IC50
Procedure: as §1, §2

[21] = test system: SK-Mel-28 melanoma cells; test: XTT dye binding cytotoxicity assay, SK-Mel-28; format: cell-based; settings: Homo sapiens; SK-Mel-28, melanoma; 72 h; read-out: IC50
Procedure: as §1, §2

[22] = test system: L-1210 leukemia cells; test: XTT dye binding cytotoxicity assay, L-1210; format: cell-based, mouse; settings: L1210; L-1210, mouse leukemia; 72 h; read-out: IC50
Procedure: as §1, §2

[23] = test system: M-24 metastatic melanoma cells; test: XTT dye binding cytotoxicity assay, M-24; format: cell-based; settings: Homo sapiens, M24; M-24, melanoma-metastatic; 72 h; read-out: IC50
Procedure: as §1, §2

[24] = Plasma stability and prodrug reversion (ethyl acetate extraction, HPLC); settings: human, plasma
[25] = test system: tumor cell lines; test: Cytotoxicity, summary over tumor cell lines (XTT); format: cell-based, human and murine
Procedure: Antiproliferative activities of the onium salts were determined using the XTT dye binding assay. Cells were harvested with trypsin/EDTA (Irvine Scientific), washed, resuspended in the appropriate medium, and counted in a hemocytometer using Trypan Blue to determine viability. […] After 72 hours, XTT binding dye was added and incubation was continued for 4 hours. The inhibition of cell proliferation was quantified using a Molecular Devices Microplate Reader. […] The concentration of drug which inhibited growth of cells by 50% was calculated from duplicated determinations.

[26] = test system: human tumor xenografts; test: In vivo antitumor effect (human tumor xenografts in nude mice)
[27] = test system: A549 lung adenocarcinoma tumor xenograft; test: Human lung adenocarcinoma A549 xenograft in nude mice; settings: 1.0 mM, 400 μL i.p. days 1, 3, 5, 7, 9, 11
Procedure: (§3) Athymic nude mice were purchased from Harlan-Sprague-Dawley. The animals were housed in microisolated cases under positive air pressure and all manipulations and drug treatments were performed in a laminar flow cabinet. Tumor cells were grown under the above tissue culture conditions. Cell suspensions in RPMI medium were injected S./C. Treatment was started one day after inoculation by i.p. injection of 400 μl drug solutions. Tumors were measured 3 times weekly in two dimensions, using calipers and tumor volume as calculated using the formula (V=w^2 ×L×(3.142).
The tumor model was generated from A549 cell line, an ATTC that was maintained under standard cell proliferation conditions (37° C., 5% carbon dioxide in sterile air). Each cohort was comprised of six randomly chosen female athymic nude mice, for a total population size of twenty four mice. Hemocytometer counted cells, suspended in Hanks mediun (Gibco, Grand Island N.Y.) were implated S.C. (10^6 cells in 0.4 mL per mouse). Solid tumor growth was measured on each third day. Equimolar amounts of the test compounds (1.0 mM, 400 μL) were injected i.p. on days 1, 3, 5, 7, 9, and 11 using the following media:
(Δ): Control, saline in 5× distilled water (5 DW)
(.smallcircle.): Taxol (18.0 mg/kg of animal weight or approximately 1,260 mg/m^2) suspended in Cremaphor/D5W […]

[28] = Comparative toxicities (lethality) in mice
[29] = Stability in water, assay medium and storage solution; format: physicochemical
Description: used and differing ultraviolet absorption maxima between the prodrug and the drug, the stability was easily assayed using UV detection. In all the ensuing studies, the only degradation products detected were the taxoids and the pyridinone that results from the hydrolysis of the onium salts. In water, these compounds show surprising stability for up to weeks depending upon the storage conditions. […] The fraction of ethyl acetated extractable material was between 18 and 23% for all onium salts and 95% for the present compounds.
FIG. 2 illustrates the results of GTP induced polymerization and calcium chloride induced depolymerization of tubulin in the presence of taxol and the 2'- and 7-MPA substituted derivatives.

[30] = test system: PC-3 prostate carcinoma tumor xenograft; test: PC-3 prostate tumor xenograft in nude mice
Procedure: as §3
The tumor model was generated from an ATTC PC-3 prostate carcinoma cell line that was maintained under standard cell proliferation conditions, viz. 37° C., 5% carbon dioxide in sterile air. Each cohort was comprised of eight randomly chosen female athymic nude mice, for a total population size of twenty four. Hemocytometer counted cells, suspended in Hanks mediun (Gibco, Grand Island N.Y.) were implanted S.C. (10^6 cells in 0.4 mL per mouse). Solid tumor growth was measured on each third day. Equimolar amounts of the test compounds (1.0 mM, 400 μL) were injected i.p. on days 1, 3, 5, 7, 9, and 11 using the following media:
(.smallcircle.): Control, 5% dextrose in 5× distilled water (5 DW)
(Δ): Taxol (18.0 mg/kg of animal weight or approximately 1.260 mg/m^2) suspended in Cremaphor/D5W
Inferences about efficacy were drawn by ANOVA followed by protected t-test. […] Data shown as mean value with standard error.

In the case of `CC(=O)O[C@H]1C(=O)[C@@]2(C)[C@H]([C@H](OC(=O)c3ccsc3)[C@]3(O)C[C@H](OC(=O)[C@H](Oc4cccc[n+]4C)[C@@H](NC(=O)c4ccccc4)c4ccccc4)C(C)=C1C3(C)C)[C@]1(OC(C)=O)CO[C@@H]1C[C@@H]2O` [Compound 4], the “inhibition of calcium chloride induced depolymerization of microtubules” value [1] is reported as “behaved in this assay similar to the C-2'-MPA isomer of taxol (2)”, the IC50 [2] is reported as 0.12 nM and the IC50 [3] is reported as 815 nM. The half-life [4] was 14 min, the recovery [4] was 23% and the IC50 [5] was 0.99 nM. For the same compound, the Toxicity [6] was “low”, the “% survival” value [6] was 100% and the IC50 [7] was 0.35 nM. It also gave an IC50 [8] of 0.11 nM, an IC50 [9] of 408 nM and an IC50 [10] of 219 nM. It also gave an IC50 [11] of 1.15 nM, an IC50 [12] of 11.5 nM and an IC50 [13] of 2.35 nM. The IC50 [14] was 0.066 nM, the IC50 [15] was 7.55 nM and the IC50 [16] was 31.7 nM. The IC50 [17] was 1.88 nM, the IC50 [18] was 4.18 nM and the IC50 [19] was 0.86 nM. It also gave an IC50 [20] of 655 nM, an IC50 [21] of 110 nM and an IC50 [22] of 1.2 nM. It also gave an IC50 [23] of 0.54 nM.

In the case of `CC(=O)O[C@H]1C(=O)[C@@]2(C)[C@H]([C@H](OC(=O)c3ccccc3)[C@]3(O)C[C@H](OC(=O)[C@H](OC(=O)CS(=O)(=O)C(=O)O)[C@@H](NC(=O)c4ccccc4)c4ccccc4)C(C)=C1C3(C)C)[C@]1(OC(C)=O)CO[C@@H]1C[C@@H]2O` [Compound 7], the Toxicity [6] is reported as “low”, the “% survival” value [6] is reported as 75% and the half-life [24] is reported as 100 min. The recovery [24] was 34%, the cytotoxicity in words [25] was “high cytotoxicity profile” and the “in vivo antitumor efficacy in words” value [26] was “completely fails to exhibit any antitumor effects in vivo”. The “tumor growth inhibition, A549” value [27] was “no significant growth inhibition”.

With `CC(=O)O[C@@]12CO[C@@H]1C[C@H](O)[C@@]1(C)C(=O)[C@H](O)C3=C(C)[C@@H](OC(=O)[C@H](O)[C@@H](NC(=O)OC(C)(C)C)c4ccccc4)C[C@@](O)([C@@H](OC(=O)c4ccccc4)[C@H]21)C3(C)C` [Compound 5, N-debenzoyl-N-tert-butoxycarbonyl-10-deacetyl Taxol, reference compound] the IC50 [2] was 0.035 nM, the IC50 [3] was 80 nM and the “50% lethality and toxicities, in words” value ([28]; conventional formulation, relative to taxol) was 50% lethality and toxicities at generally lower dosages as compared to taxol. The IC50 [5] was 0.84 nM, the IC50 [7] was 0.011 nM and the IC50 [9] was 71.2 nM. The IC50 [10] was 32.9 nM, the IC50 [12] was 41.5 nM and the IC50 [13] was 0.8 nM. It also gave an IC50 [15] of 1.56 nM, an IC50 [16] of 21 nM and an IC50 [17] of 0.12 nM. The IC50 [18] was 0.65 nM, the IC50 [19] was 0.11 nM and the IC50 [20] was 65 nM. It also gave an IC50 [21] of 614 nM, an IC50 [22] of 0.59 nM and an IC50 [23] of 0.017 nM.

In the case of `CC(=O)O[C@@]12CO[C@@H]1C[C@H](O)[C@@]1(C)C(=O)[C@H](O)C3=C(C)[C@@H](OC(=O)[C@H](Oc4cccc[n+]4C)[C@@H](NC(=O)OC(C)(C)C)c4ccccc4)C[C@@](O)([C@@H](OC(=O)c4ccccc4)[C@H]21)C3(C)C` [Compound 6], the IC50 [2] is reported as 0.89 nM, the IC50 [3] is reported as 292 nM and the Toxicity ([28]; mouse, in vivo) is reported as “minimal toxicity”. For the same compound, the lethality ([28]; mouse, in vivo) was “no lethality”, the IC50 [5] was 3.08 nM and the IC50 [7] was 0.59 nM. The IC50 [8] was 0.065 nM, the IC50 [9] was 596 nM and the half-life [24] was 0.9 min. For the same compound, the recovery [24] was 18%, the IC50 [10] was 56 nM and the IC50 [12] was 0.56 nM. For the same compound, the IC50 [13] was 0.72 nM, the storage stability ([29]; 1-2% Tween #80 or Tween #20 with or without ethyl alcohol) was “stable and may stored without significant loss” and the IC50 [15] was 4.12 nM. The IC50 [16] was 0.61 nM, the IC50 [17] was 19.9 nM and the IC50 [18] was 7.34 nM. For the same compound, the IC50 [19] was 81.8 nM, the IC50 [20] was 1.59 nM and the IC50 [21] was 68.2 nM. For the same compound, the IC50 [22] was 0.019 nM.

With `CC(=O)O[C@H]1C(=O)[C@]2(C)[C@@H](Oc3cccc[n+]3C)C[C@H]3OC[C@@]3(OC(C)=O)[C@H]2[C@H](OC(=O)c2ccccc2)[C@]2(O)C[C@H](OC(=O)[C@H](O)[C@@H](NC(=O)c3ccccc3)c3ccccc3)C(C)=C1C2(C)C` [Compound 3] the “inhibition of calcium chloride induced depolymerization of microtubules” value [1] was “as effective as taxol in inhibiting calcium induced microtubule disassembly”, the “inhibition of calcium chloride induced depolymerization of microtubules” value ([1]; listed as 7-MPA salt) was “essentially complete inhibition of depolymerization” and the “inhibition of calcium chloride induced depolymerization of microtubules” value ([1]; listed as taxol-7-MPA) was “suppressed by taxol and taxol-7-MPA”. The IC50 [2] was 5.85 nM, the IC50 [3] was 612 nM and the IC50 [5] was 35.3 nM. For the same compound, the Toxicity [6] was “low”, the “% survival” value [6] was 100% and the IC50 [7] was 34.5 nM. The IC50 [8] was 140 nM, the IC50 [9] was 123 nM and the half-life [24] was 180 min. It also gave a recovery [24] of 20%, an IC50 [10] of 81 nM and an IC50 [11] of 70.7 nM. For the same compound, the cytotoxicity in words [25] was “cytotoxicities comparable to taxol on human tumor cell lines”, the “antitumor activity, PC-3” value ([30]; 1.0 mM, 400 μL i.p., established tumors) was “essentially no antitumor activity” and the “mice surviving treatment, PC-3” value ([30]; in vivo) was “all of the mice given either the 2'- or 7-isomers survived”. For the same compound, the IC50 [12] was 454 nM, the IC50 [13] was 42.5 nM and the “stability under the assembly-disassembly conditions” value ([29]; HPLC analysis) was “completely stable”. The IC50 [14] was 9.94 nM, the IC50 [15] was 8.79 nM and the IC50 [16] was 170 nM. The IC50 [17] was 12.8 nM, the “in vivo antitumor efficacy in words” value [26] was “completely failed to inhibit the growth of these tumors in nude mice” and the IC50 [18] was 19.6 nM. It also gave an IC50 [19] of 84.2 nM, an IC50 [20] of 85.5 nM and an IC50 [21] of 702 nM. It also gave an IC50 [22] of 178 nM and an IC50 [23] of 0.62 nM.
